We go through 15 compounds from patent US4966891A, “Fluorocytidine derivatives” (priority 1987, dated 1990).

The conditions of data set [1]: words, general knowledge; cited from earlier work.
Data set [2] deals with Sarcoma 180. In words: Antitumor testing against Sarcoma 180 (oral, s.c. implanted). Type of data set: in vivo, mice. The note with it: Mus musculus, 336 h, day 14, read-out: Inhibition of tumor growth; for inhibition in vivo at 1100 µmol/kg: 1.1 mmole/kg/day × 7, p.o.; for inhibition in vivo at 2200 µmol/kg: 2.2 mmole/kg/day × 7, p.o.; for inhibition in vivo at 800 µmol/kg: 0.8 mmole/kg/day × 7, p.o.; for inhibition in vivo at 1500 µmol/kg: 1.5 mmole/kg/day × 7, p.o.; for inhibition in vivo at 500 µmol/kg: 0.5 mmole/kg/day × 7, p.o. On the procedure: (§1) Sarcoma 180 cells (2×10^6 cells) were implanted subcutaneously into mice (20-22 g) on day 0. The compounds of the present invention were administered daily from day 1 through 7 orally. The animals were sacrificed on day 14 and tumors were excised and weighed. The percent inhibition of tumor growth given in Table 1 below was calculated from the formula:
(§2) T=weight of the tumors from the treated group, C=weight of the tumors from the control group.

Data set [3] in a line: in vivo. As to conditions: mouse, po.
In data set [4] the test system is Meth A fibrosarcoma. In words: Antitumor testing against Meth A fibrosarcoma (oral, s.c. implanted). It is filed as in vivo, mice. The note with it: Mus musculus, read-out: Inhibition of tumor growth; for inhibition in vivo at 1500 µmol/kg: 1.5 mmole/kg/day × 7, p.o.; for inhibition in vivo at 3000 µmol/kg: 3.0 mmole/kg/day × 7, p.o. On the procedure:
as §1, §2
(§3) Meth A fibrosarcoma cells (2×10^5 cells) were implanted subcutaneously into mice (21-22 g). The testing against Meth A fibrosarcoma and the calculation of the percent inhibition of tumor growth were effected according to a manner analogous to that of the testing against Sarcoma 180.

For data set [5], the system named is Sarcoma 180. In words: Comparative antitumor testing against Sarcoma 180. It is filed as in vivo, murine / mice. The note with it: p.o. daily × 7, Day 14. The text has this:
(§4) Mice were inoculated subcutaneously with Sarcoma 180, Meth A fibrosarcoma and UV 2237 fibrosarcoma, respectively at Day 0. The mice were then orally administered with the compounds daily for 7 times from Day 1. The efficacy
(§5) was expressed as therapeutic indices (EDmax /ED50) measured at Day 14 after the tumor inoculation, where EDmax is a dose showing maximum inhibition of tumor growth.

Data set [6] has as its system Meth A fibrosarcoma. Kind of data set: Comparative antitumor testing against Meth A fibrosarcoma. Type of data set: in vivo, murine / mice. As to conditions: p.o. daily × 7, Day 14.
Source text: as §4, §5

The test system of data set [7] is UV 2237 fibrosarcoma. In words: Comparative antitumor testing against UV 2237 fibrosarcoma. The note with it: p.o. daily × 7, Day 14. It is filed as in vivo, murine / mice.
Source text: as §4, §5

The subject of data set [8] is Lewis lung carcinoma. As to conditions: mouse, in vivo, po.
Experimental: Mice were inoculated subcutaneously with Lewis lung carcinoma (10^6 cells) on day 0.
The compounds were administered daily for 14 times from day 1 by the p.o. route. The effective dose (ED50) at which tumor growth was inhibited by 50%, and toxic doses were determined.
The test system of data set [9] is Meth A fibrosarcoma. Kind of data set: Comparative study on antitumor activity against Meth A fibrosarcoma with 5'-deoxy-5-fluorouridine. It is filed as in vivo, mice. On the procedure:
as §3
(§6) The comparative study on antitumor activity of a representative compound (Example 3) of the present invention with 5'-deoxy-5-fluorouridine was performed according to a manner analogous to that of the antitumor testing against Meth A fibrosarcoma.

Data set [10] is described as follows: Fecal observation on Day 8 and toxicity in the comparative Meth A study. The note with it: for diarrhea: mouse, in vivo. On the procedure:
as §6

A value given as a limit tells only on which side of the number the result lay.

With `O=c1[nH]cc(F)c(=O)[nH]1` [5-fluorouracil], in data set [1], the “major and dose limiting toxicities” value was “cause intestinal toxicities and immunosuppressive toxicities”.

In general, LD50 refers to the dose at which mortality reaches 50%. Regarding `CC(C)C(=O)Nc1nc(=O)n([C@@H]2O[C@H](C)[C@@H](O)[C@H]2O)cc1F` [Example 9, 5'-deoxy-5-fluoro-N^4-isobutyrylcytidine], the inhibition in vivo at 1400 µmol/kg in data set [2] (1.4 mmole/kg/day × 7, p.o.) worked out at 76%. Further, in data set [2] (2.7 mmole/kg/day × 7, p.o.), the inhibition in vivo at 2700 µmol/kg amounted to 96%. Moreover, the median lethal dose (LD50) in data set [3] is > 2000 mg/kg.

In the case of `CCCCC(=O)Nc1nc(=O)n([C@@H]2O[C@H](C)[C@@H](O)[C@H]2O)cc1F` [Example 46, 5'-deoxy-5-fluoro-N^4-valerylcytidine], in [4], the inhibition in vivo at 1500 µmol/kg came out at 51% and the inhibition in vivo at 3000 µmol/kg was determined as 66%. Besides, the LD50 in data set [3] is > 2000 mg/kg.

As to `CCCC(=O)Nc1nc(=O)n([C@@H]2O[C@H](C)[C@@H](O)[C@H]2O)cc1F` [Example 1, N^4-butyryl-5'-deoxy-5-fluorocytidine], in data set [2], the inhibition in vivo at 1100 µmol/kg was determined as 56% and the inhibition in vivo at 2200 µmol/kg turned out to be 83%. In data set [4], the inhibition in vivo at 1500 µmol/kg amounted to 50% and the inhibition in vivo at 3000 µmol/kg amounted to 72%. Besides, the “Therapeutic index (EDmax/ED50), S180” value in data set [5] was 2.3. Also, the “Therapeutic index (EDmax/ED50), Meth A” value in [6] was 2.0. In addition, the “Therapeutic index (EDmax/ED50), UV 2237” value in data set [7] is 4.8. Besides, in data set [8], the “Therapeutic index (toxic dose/ED50): 50% Thymus Shrinkage (C)” value stood at 11.3, the “Therapeutic index (toxic dose/ED50): 50% reduction No. of bone marrow cells (D)” value was 10.7 and the “Therapeutic index (toxic dose/ED50): Max. Dose causing no diarrhea (A)” value is reported as > 13. For the same compound, the LD50 in data set [3] was > 2000 mg/kg.

Consider `CCCCCCCC(=O)Nc1nc(=O)n([C@@H]2O[C@H](C)[C@@H](O)[C@H]2O)cc1F` [Example 5, 5'-deoxy-5-fluoro-N^4-octanoylcytidine], for which, in data set [2], the inhibition in vivo at 1100 µmol/kg worked out at 62% and the inhibition in vivo at 2200 µmol/kg is 82%. The median lethal dose (LD50) in data set [3] is > 2000 mg/kg.

For the compound `C[C@H]1O[C@@H](n2cc(F)c(=O)[nH]c2=O)[C@H](O)[C@@H]1O` [5'-deoxy-5-fluorouridine, reference compound], the “Inhibition of tumor growth” value is listed as 34% in [9] (0.4 mmole/kg/day × 7), 31% in data set [9] (0.8 mmole/kg/day × 7), 66% in data set [9] (1.5 mmole/kg/day × 7) and “toxic” in [9] (3.0 mmole/kg/day × 7). In addition, the diarrhea result in data set [10] was “diarrhea, which is the dose limiting factor”. In data set [5], the “Therapeutic index (EDmax/ED50), S180” value worked out at 2.4. The “Therapeutic index (EDmax/ED50), Meth A” value in [6] came to 1.1. For the same compound, the “Therapeutic index (EDmax/ED50), UV 2237” value in data set [7] is 1.6. Further, the “Therapeutic index (toxic dose/ED50): 50% Thymus Shrinkage (C)” value in [8] is given as 5-10. Also, in [8], the “Therapeutic index (toxic dose/ED50): 50% reduction No. of bone marrow cells (D)” value is 5-10. Further, in data set [8], the “Therapeutic index (toxic dose/ED50): Max. Dose causing no diarrhea (A)” value is given as 5.

`C[C@H]1O[C@@H](n2cc(F)c(N)nc2=O)[C@H](O)[C@@H]1O` [5'-deoxy-5-fluorocytidine]: in data set [5], the “Therapeutic index (EDmax/ED50), S180” value came to 2.0. For the same compound, in data set [6], the “Therapeutic index (EDmax/ED50), Meth A” value amounted to 1.2. In addition, the “Therapeutic index (EDmax/ED50), UV 2237” value in data set [7] was 1.0.

As for `C[C@H]1O[C@@H](n2cc(F)c(NC(=O)C34CC5CC(CC(C5)C3)C4)nc2=O)[C@H](O)[C@@H]1O` [Example 13, N^4-(1-adamantanecarbonyl)-5'-deoxy-5-fluorocytidine], in data set [2], the inhibition in vivo at 800 µmol/kg is 28% and the inhibition in vivo at 1500 µmol/kg came out at 66%.

With `C[C@H]1O[C@@H](n2cc(F)c(NC(=O)OCc3ccccc3)nc2=O)[C@H](O)[C@@H]1O` [Example 42, N^4-(benzyloxycarbonyl)-5'-deoxy-5-fluorocytidine], in data set [2], the inhibition in vivo at 500 µmol/kg amounted to 0% and the inhibition in vivo at 1500 µmol/kg was 36%.

With `COc1ccc(C(=O)Nc2nc(=O)n([C@@H]3O[C@H](C)[C@@H](O)[C@H]3O)cc2F)cc1` [Example 24], the inhibition in vivo at 1500 µmol/kg in data set [2] came to 63%. Further, in data set [2] (3.0 mmole/kg/day × 7, p.o.), the inhibition in vivo at 3000 µmol/kg is 94%. Also, in [3], the LD50 is > 2000 mg/kg.

Consider `C[C@H]1O[C@@H](n2cc(F)c(NC(=O)c3cccnc3)nc2=O)[C@H](O)[C@@H]1O` [Example 34], for which the inhibition in vivo at 1300 µmol/kg in [4] (1.3 mmole/kg/day × 7, p.o.) turned out to be 75%. The inhibition in vivo at 2600 µmol/kg in [4] (2.6 mmole/kg/day × 7, p.o.) stood at 92%. Further, the LD50 in data set [3] is > 2000 mg/kg.

`CCCCCCCCOC(=O)Nc1nc(=O)n([C@@H]2O[C@H](C)[C@@H](O)[C@H]2O)cc1F` [Example 41, 5'-deoxy-5-fluoro-N^4-(octyloxycarbonyl)cytidine]: in [2], the inhibition in vivo at 500 µmol/kg was -18% and the inhibition in vivo at 1500 µmol/kg came out at 36%.

Regarding `CC(C)CC(=O)Nc1nc(=O)n([C@@H]2O[C@H](C)[C@@H](O)[C@H]2O)cc1F` [Example 47, 5'-deoxy-5-fluoro-N^4-isovalerylcytidine], in [4], the inhibition in vivo at 1500 µmol/kg was 29% and the inhibition in vivo at 3000 µmol/kg is 59%. The LD50 in data set [3] was > 2000 mg/kg.

Regarding `COc1cc(C(=O)Nc2nc(=O)n([C@@H]3O[C@H](C)[C@@H](O)[C@H]3O)cc2F)cc(OC)c1OC` [Example 3, 5'-deoxy-5-fluoro-N^4-(3,4,5-trimethoxybenzoyl)cytidine], the inhibition in vivo at 1500 µmol/kg in data set [4] is 86%. Besides, the inhibition in vivo at 3000 µmol/kg in [4] came out at 79%. The “Inhibition of tumor growth” value in [9] (0.4 mmole/kg/day × 7) was -27%; in data set [9] (0.8 mmole/kg/day × 7), 20%; in data set [9] (1.5 mmole/kg/day × 7), 86%; in data set [9] (3.0 mmole/kg/day × 7), 79%. Besides, in data set [9] (words), the “antitumor activity compared with 5'-deoxy-5-fluorouridine” value is given as “more potent in the antitumor activity”. Besides, in [10], the diarrhea result was “did not cause diarrhea”. Besides, in data set [10] (words), the “toxicity compared with 5'-deoxy-5-fluorouridine” value was “less toxic than 5'-deoxy-5-fluorouridine”.

With `C[C@H]1O[C@@H](n2cc(F)c(NC(=O)C3CCCCC3)nc2=O)[C@H](O)[C@@H]1O` [Example 12, N^4-cyclohexanecarbonyl-5'-deoxy-5-fluorocytidine], in data set [2], the inhibition in vivo at 800 µmol/kg was determined as 40% and the inhibition in vivo at 1500 µmol/kg was determined as 73%.
